Measured values published in ChEMBL document CHEMBL1152992, “RmtC 16S rRNA methyltransferase in Australia” (2008).
Converted amounts (≈) assume the structure as drawn.

System: Proteus mirabilis
Assay: Antimicrobial activity against Proteus mirabilis JIE273 expressing 16S rRNA methyltransferase RmtC
Type: functional

MIC [µg/mL] | Structure (SMILES)
> 16 | CC1(C)S[C@@H]2[C@H](NC(=O)[C@H](N)c3ccccc3)C(=O)N2[C@H]1C(=O)O [AMPICILLIN]
> 32 | CO/N=C(\C(=O)N[C@@H]1C(=O)N2C(C(=O)O)=C(COC(C)=O)CS[C@H]12)c1csc(N)n1 [CEFOTAXIME]
≤ 4 | CO[C@@]1(NC(=O)Cc2cccs2)C(=O)N2C(C(=O)O)=C(COC(N)=O)CS[C@@H]21 [CEFOXITIN]
> 32 | CO/N=C(\C(=O)N[C@@H]1C(=O)N2C(C(=O)O)=C(CSc3nc(=O)c(O)nn3C)CS[C@H]12)c1csc(N)n1 [CEFTRIAXONE]
> 16 | CO/N=C(\C(=O)N[C@@H]1C(=O)N2C(C(=O)O)=C(COC(N)=O)CS[C@H]12)c1ccco1 [CEFUROXIME]
> 16 | CC(=O)OCC1=C(C(=O)O)N2C(=O)[C@@H](NC(=O)Cc3cccs3)[C@H]2SC1 [CEPHALOTHIN]
> 2 | O=C(O)c1cn(C2CC2)c2cc(N3CCNCC3)c(F)cc2c1=O [CIPROFLOXACIN]
≤ 2 | C[C@@H](O)[C@H]1C(=O)N2C(C(=O)O)=C(SCCNC=N)C[C@H]12 [IMIPENEM ANHYDROUS]
> 4 | C[C@H]1COc2c(N3CCN(C)CC3)c(F)cc3c(=O)c(C(=O)O)cn1c23.C[C@H]1COc2c(N3CCN(C)CC3)c(F)cc3c(=O)c(C(=O)O)cn1c23.O [LEVOFLOXACIN]
32 (≈ 83.2 µM) | CC1(C)S[C@@H]2[C@H](NC(=O)[C@H](C(=O)O)c3ccsc3)C(=O)N2[C@H]1C(=O)O [TICARCILLIN]

Structure (SMILES) | MIC [µg/mL]
C[C@H]1[C@H](NC(=O)/C(=N\OC(C)(C)C(=O)O)c2csc(N)n2)C(=O)N1S(=O)(=O)O [AZTREONAM] | > 16
CC(C)(O/N=C(\C(=O)N[C@@H]1C(=O)N2C(C(=O)[O-])=C(C[n+]3ccccc3)CS[C@H]12)c1csc(N)n1)C(=O)O [CEFTAZIDIME] | > 16
CCn1cc(C(=O)O)c(=O)c2ccc(C)nc21 [NALIDIXIC ACID] | > 32
